Entries after “also recorded” stand apart in the source; their conditions may differ.
Experiments:
5-HT2A receptor = 5-HT2A receptor (Mus musculus, UniProt P35363); experiment: head-twitch response; type: in vivo, C57BL/6 mice; conditions: mice, 1 mg/kg p.o.; for HTR induction, result in words: 15–30 min window
[1] = test system: mice subjected to a Mild Chronic Stress Paradigm (MCSP); experiment: marble-burying test; type: in vivo, C57BL/6 mice; conditions: for marble-burying behavior in stressed mice, 1 day postdose, in words / marble-burying behavior in stressed mice, up to 7 days, in words: MCSP mice, single p.o. dose, psilocybin 1 mg/kg, NPDs 10 mg/kg
[2] = plasma pharmacokinetics of psilocin and parent prodrug in healthy mice; conditions: for psilocin AUC(0–tlast) relative to ES02: 10 mg/kg p.o., within first 8 h; for time up to which parent derivative is detected systemically postdose: plasma parent prodrug
[3] = humans; cited from earlier work
[4] = human participants, 25 mg psilocybin; cited from earlier work

5-HT2A receptor, sequence (P35363 whole entry): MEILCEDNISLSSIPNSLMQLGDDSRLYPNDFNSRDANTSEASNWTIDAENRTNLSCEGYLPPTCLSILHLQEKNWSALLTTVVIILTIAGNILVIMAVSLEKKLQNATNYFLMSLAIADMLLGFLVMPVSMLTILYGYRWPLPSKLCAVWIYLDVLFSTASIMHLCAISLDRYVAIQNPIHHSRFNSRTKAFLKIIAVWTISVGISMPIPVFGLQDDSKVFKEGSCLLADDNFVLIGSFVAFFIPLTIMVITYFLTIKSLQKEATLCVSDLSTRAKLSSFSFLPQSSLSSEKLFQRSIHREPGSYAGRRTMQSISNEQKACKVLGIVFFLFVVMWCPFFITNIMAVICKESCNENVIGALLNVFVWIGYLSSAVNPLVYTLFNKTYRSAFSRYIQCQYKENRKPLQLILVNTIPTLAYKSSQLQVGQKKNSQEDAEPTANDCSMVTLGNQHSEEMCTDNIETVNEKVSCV

CN(C)CCc1cn(C(=O)OCc2ccccc2)c2cccc(OC(=O)OCc3ccccc3)c12 [C01, Benzyl 4-(((Benzyloxy)carbonyl)oxy)-3-(2-(dimethylamino)ethyl)-1H-indole-1-carboxylate]
HTR induction, result in words (5-HT2A receptor): ineffective in inducing HTR

CN(C)CCc1c[nH]c2cccc(OC(=O)OCc3ccccc3)c12 [C02, Benzyl (3-(2-(Dimethylamino)ethyl)-1H-indol-4-yl) Carbonate]
HTR induction, result in words (5-HT2A receptor): statistically significant psychomimetic effects in healthy mice

CN(C)CCc1c[nH]c2cccc(OC(=O)OCC3CC3)c12 [C03, Cyclopropylmethyl (3-(2-(Dimethylamino)ethyl)-1H-indol-4-yl) Carbonate]
HTR induction, result in words (5-HT2A receptor): appeared not to induce a notable hallucinogenic effect

CCCC(=O)OCOc1cccc2[nH]cc(CCN(C)C)c12 [EE01, ((3-(2-(Dimethylamino)ethyl)-1H-indol-4-yl)oxy)methyl Butyrate]
HTR induction, result in words (5-HT2A receptor): appeared not to induce a notable hallucinogenic effect

COc1ccc(C(=O)Oc2cccc3[nH]cc(CCN(C)C)c23)cc1 [ES01, 3-(2-(Dimethylamino)ethyl)-1H-indol-4-yl 4-Methoxybenzoate]
HTR induction, result in words (5-HT2A receptor; 1 mg/kg): induced HTR at an intensity statistically equivalent to the natural psychedelic compound; also recorded: produced HTR responses equivalent to psilocybin | marble-burying behavior in stressed mice, 1 day postdose, in words [1]: significant reduction in marble-burying behavior | marble-burying behavior in stressed mice, up to 7 days, in words [1]: completely rescuing the elevated anxiety-like condition to the innate behavioral state up to 7 days after treatment | psilocin AUC(0–tlast) relative to ES02 [2]: greater than twice that of ES02

CN(C)CCc1c[nH]c2cccc(OC(=O)CC3CC3)c12 [ES02, 3-(2-(Dimethylamino)ethyl)-1H-indol-4-yl 2-cyclopropylacetate]
HTR induction, result in words (5-HT2A receptor): induced HTR at an intensity statistically equivalent to the natural psychedelic compound | marble-burying behavior in stressed mice, 1 day postdose, in words [1]: significant reduction in marble-burying behavior

CN(C)CCc1c[nH]c2cccc(OC(=O)c3c(F)c(F)c(F)c(F)c3F)c12 [ES03, 3-(2-(Dimethylamino)ethyl)-1H-indol-4-yl 2,3,4,5,6-pentafluorobenzoate]
HTR induction, result in words (5-HT2A receptor; 1 mg/kg): induced HTR at an intensity statistically equivalent to the natural psychedelic compound; also recorded: produced HTR responses equivalent to psilocybin

CN(C)CCc1c[nH]c2cccc(OC(=O)c3cccc4c3OCCO4)c12 [ES04, 3-(2-(Dimethylamino)ethyl)-1H-indol-4-yl 2,3-dihydrobenzo[b][1,4]dioxine-5-carboxylate]
HTR induction, result in words (5-HT2A receptor): appeared not to induce a notable hallucinogenic effect

CN(C)CCc1c[nH]c2cccc(OP(=O)(O)O)c12 [PCB, psilocybin, reference compound]
duration of statistically enhanced HTR relative to vehicle (5-HT2A receptor): up to 90 min | observation window of peak HTR intensity (5-HT2A receptor): 15 to 30 min | duration of psychedelic episode from time of dosing [3]: up to 6 h | marble-burying behavior in stressed mice, 1 day postdose, in words [1]: significantly reduced number of buried marbles | marble-burying behavior in stressed mice, up to 7 days, in words [1]: long-term benefits lasting up to 7 days post-treatment | effect on innate burying behavior in nonstressed mice ([1]; nonstressed mice, 1 mg/kg p.o.): no significant effect on the innate burying behavior in nonstressed mice | duration of systemic psilocin exposure postadministration [4]: up to 24 h | time of peak plasma psilocin level [4]: 2 h

CN(C)CCc1c[nH]c2cccc(O[Si](C)(C)C(C)(C)C)c12 [SE01, 2-(4-((tert-Butyldimethylsilyl)oxy)-1H-indol-3-yl)-N,N-dimethylethanamine]
HTR induction, result in words (5-HT2A receptor): induced notable HTR | time up to which parent derivative is detected systemically postdose [2]: up to 8 h

CC(C)[Si](Oc1cccc2[nH]cc(CCN(C)C)c12)(C(C)C)C(C)C [SE02, N,N-Dimethyl-2-(4-((triisopropylsilyl)oxy)-1H-indol-3-yl)ethanamine]
HTR induction, result in words (5-HT2A receptor): induced notable HTR | time up to which parent derivative is detected systemically postdose [2]: up to 8 h

CN(C)CCc1c[nH]c2cccc(OC(=O)SCc3ccccc3)c12 [T01, S-Benzyl O-(3-(2-(Dimethylamino)ethyl)-1H-indol-4-yl) Carbonothioate]
HTR induction, result in words (5-HT2A receptor; 1 mg/kg): induced notable HTR; also recorded: statistically significant psychomimetic effects in healthy mice | marble-burying behavior in stressed mice, 1 day postdose, in words [1]: significant reduction in marble-burying behavior | marble-burying behavior in stressed mice, up to 7 days, in words [1]: completely rescuing the elevated anxiety-like condition to the innate behavioral state up to 7 days after treatment | psilocin (Cmax) produced relative to psilocybin ([2]; 1 mg/kg i.v., 1 mg/kg): three to five times greater than psilocybin; also recorded: approximately four times greater psilocin relative to the natural prodrug | psilocin AUC(0–tlast) relative to ES02 [2]: greater than twice that of ES02
